Results reported in US20200071326A1, “TAM KINASE INHIBITORS” (Syros Pharmaceuticals, Inc., priority 2017, published 2020).
Structures can show the parent of a compound that is named as a salt.

What was measured:
FLT3 = molecular target: T1, FLT3 (Homo sapiens, UniProt P36888); assay: IMAP fluorescence polarization kinase assay, FLT3; format: biochemical; details: ATP 2.74 μM, enzyme 2.5 nM, 240 minutes, read-out: FLT3 inhibitory constant (Ki)
T1 sequence (P36888 27-993): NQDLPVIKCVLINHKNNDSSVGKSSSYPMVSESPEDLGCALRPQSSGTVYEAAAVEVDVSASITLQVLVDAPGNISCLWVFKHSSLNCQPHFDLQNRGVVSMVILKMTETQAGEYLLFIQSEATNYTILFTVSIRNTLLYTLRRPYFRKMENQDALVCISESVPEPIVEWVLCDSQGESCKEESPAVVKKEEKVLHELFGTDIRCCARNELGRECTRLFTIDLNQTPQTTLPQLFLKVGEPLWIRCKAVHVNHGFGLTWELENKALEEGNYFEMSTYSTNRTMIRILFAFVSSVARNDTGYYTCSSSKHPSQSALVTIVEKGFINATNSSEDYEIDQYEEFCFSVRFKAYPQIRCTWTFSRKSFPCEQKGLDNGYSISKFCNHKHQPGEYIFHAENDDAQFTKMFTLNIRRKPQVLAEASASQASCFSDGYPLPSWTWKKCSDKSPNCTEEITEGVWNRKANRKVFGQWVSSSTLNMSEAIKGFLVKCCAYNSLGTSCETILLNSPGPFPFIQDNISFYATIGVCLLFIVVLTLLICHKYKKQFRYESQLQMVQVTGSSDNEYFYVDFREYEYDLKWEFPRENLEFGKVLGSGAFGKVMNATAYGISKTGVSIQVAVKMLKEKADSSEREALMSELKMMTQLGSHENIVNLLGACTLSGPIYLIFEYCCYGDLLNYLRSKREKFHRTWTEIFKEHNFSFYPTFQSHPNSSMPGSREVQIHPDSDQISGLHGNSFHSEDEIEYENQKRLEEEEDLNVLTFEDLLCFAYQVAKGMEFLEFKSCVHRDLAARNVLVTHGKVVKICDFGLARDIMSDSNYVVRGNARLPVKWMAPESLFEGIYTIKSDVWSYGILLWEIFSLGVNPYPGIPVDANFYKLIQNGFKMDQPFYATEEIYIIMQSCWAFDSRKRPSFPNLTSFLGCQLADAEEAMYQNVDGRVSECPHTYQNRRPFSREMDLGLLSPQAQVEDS
Procedure: (§1) Activities of compounds against each of TYRO3, AXL, and MERTK as well as against FLT3, were determined using an immobilized metal ion affinity-based fluorescence polarization (“IMAP”) assay. A fluorescently-labeled substrate peptide was phosphorylated in the kinase reaction, after which a binding solution containing large trivalent metal-based nanoparticles was added and the phosphorylated substrate binds to these beads. This reduces the rotational speed of the substrate which is then detected using fluorescence polarization as a read-out.
(§2) The substrates used for each enzyme are as follows: AXL: 5F1-KKKKEEIYFFFG-NH2(SEQ ID NO:1); FLT3: 5F1-KKKKEEIYFFF-NH2 (SEQ ID NO:2); MERTK: 5F1-EFPIYDFLPAKKK-NH2 (SEQ ID NO:3); and TYRO3: 5F1-EFPIYDFLPAKKK-NH2 (SEQ ID NO:4).
(§3) This assay was performed in a 384-well, polystyrene microplate in a final volume of 8 μl. Substrate (final concentration=400 nM), ATP (final concentrations=24.7μM for AXL; 2.74 μM for FLT3; 2.69 μM for MERTK; and 54.0 μM for TYRO3), compounds and enzyme (final concentrations=2.5 nM for AXL, FLT3 and TYRO3; 1.5 nM for MERTK) were pipetted in this order into the appropriate reaction buffer (AXL: 50 mM HEPES, pH 8.0, 1 mM DTT, 10 mM MgCl2, 0.01% BRU35, 0.01% Triton X-100; FLT3: 50 mM HEPES, pH 8.0, 1 mM DTT, 10 mM MgCl2, 0.01% Triton X-100, 0.01% NP40; MERTK/TYRO3: 50 mM HEPES, pH 8.0, 1 mM DTT, 10 mM MgCl2, 0.01% Triton X-100) and incubated at room temperature for varying times (AXL, FLT3 and MERTK: 240 minutes; TYRO3: 60 minutes). IMAP binding solution was then dispensed, the plate incubated for 60 minutes at room temperature and the fluorescence polarization measured. Data were analyzed using XLfit.

AXL = molecular target: T2, AXL (Homo sapiens, UniProt P30530); assay: IMAP fluorescence polarization kinase assay, AXL; format: biochemical; details: ATP 24.7 μM, enzyme 2.5 nM, 240 minutes, read-out: AXL inhibitory constant (Ki)
T2 sequence (P30530 26-894): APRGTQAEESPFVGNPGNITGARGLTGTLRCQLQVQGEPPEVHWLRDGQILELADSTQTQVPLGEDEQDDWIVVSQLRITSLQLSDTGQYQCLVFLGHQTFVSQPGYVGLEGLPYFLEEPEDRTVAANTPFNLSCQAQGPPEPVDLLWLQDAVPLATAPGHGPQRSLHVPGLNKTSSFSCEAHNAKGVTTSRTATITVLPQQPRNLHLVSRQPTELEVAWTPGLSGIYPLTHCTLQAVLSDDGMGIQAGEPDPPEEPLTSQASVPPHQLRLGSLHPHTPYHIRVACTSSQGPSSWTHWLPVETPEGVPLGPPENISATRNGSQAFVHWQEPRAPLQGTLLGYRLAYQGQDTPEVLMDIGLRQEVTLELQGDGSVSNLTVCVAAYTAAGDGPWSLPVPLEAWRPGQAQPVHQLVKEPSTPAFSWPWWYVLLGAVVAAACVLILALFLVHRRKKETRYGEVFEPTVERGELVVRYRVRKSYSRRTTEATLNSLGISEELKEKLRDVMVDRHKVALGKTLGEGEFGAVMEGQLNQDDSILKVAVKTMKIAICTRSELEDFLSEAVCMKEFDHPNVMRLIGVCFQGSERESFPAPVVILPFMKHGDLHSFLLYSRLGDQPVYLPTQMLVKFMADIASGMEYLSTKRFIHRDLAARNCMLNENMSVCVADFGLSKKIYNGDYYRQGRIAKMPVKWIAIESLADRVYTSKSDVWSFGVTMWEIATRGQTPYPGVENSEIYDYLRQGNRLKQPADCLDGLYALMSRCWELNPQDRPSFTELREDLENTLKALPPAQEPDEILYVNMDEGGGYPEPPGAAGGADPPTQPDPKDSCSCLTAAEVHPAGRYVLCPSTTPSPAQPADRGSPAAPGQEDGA
Procedure: as §1, §2, §3

| Compound | Ki (FLT3) [µM] | Ki (AXL) [µM] |
| --- | --- | --- |
| C#Cc1cc2c(N[C@H]3CC[C@H](N)CC3)c(C(=O)Nc3ccc(F)cc3)cnc2[nH]1 [Compound 128, [4-1(4-aminocyclohexyl)amino]-2-ethynyl-N-(4-fluorophenyl)-1H-pyrrolo[2,3-b]pyridine-5-carboxamide] | < 0.1 | 1 to 10 |
| CC(C)c1cc2c(N[C@H]3CC[C@H](N)CC3)c(C(=O)NCc3ccc(-n4ccnc4)cc3)cnc2[nH]1 [Compound 129] | < 0.1 | 0.1 to 1 |
| CCCc1cc2c(N[C@H]3CC[C@H](N)CC3)c(-c3ccc(COC(C)C)cn3)cnc2[nH]1 [Compound 130] | < 0.1 | 1 to 10 |
| CCc1cc2c(N[C@H]3CC[C@H](N)CC3)c(C(=O)NC3CCN(c4ncccn4)CC3)cnc2[nH]1 [Compound 132] | < 0.1 | 0.1 to 1 |
| CCCCCc1cc2c(N[C@H]3CC[C@H](N)CC3)c(C(=O)NCc3ccc(-n4ccnc4)cc3)cnc2[nH]1 [Compound 133] | 0.1 to 1 | 0.1 to 1 |
| N[C@H]1CC[C@H](Nc2c(C(=O)Nc3ccc(F)cc3)cnc3[nH]c(C(F)(F)F)cc23)CC1 [Compound 135, 4-(((1r,4r)-4-aminocyclohexyl)amino)-N-(4-fluorophenyl)-2-(trifluoromethyl)-1H-pyrrolo[2,3-b]pyridine-5-carboxamide hydrochloride] | 0.1 to 1 | 0.1 to 1 |
| CCc1cc2c(N[C@H]3CC[C@H](N)CC3)c(C(=O)Nc3ccc(F)cc3)cnc2[nH]1 [Compound 136] | < 0.1 | 0.1 to 1 |
| N[C@H]1CC[C@H](Nc2c(C(=O)Nc3ccc(F)cc3)cnc3[nH]c(C4CCC4)cc23)CC1 [Compound 138, 4-(((1r,4r)-4-aminocyclohexyl)amino)-2-cyclobutyl-N-(4-fluorophenyl)-1H-pyrrolo[2,3-b]pyridine-5-carboxamide hydrochloride] | < 0.1 | 1 to 10 |
| CCCc1cc2c(N[C@H]3CC[C@H](N)CC3)c(C(=O)NC3CCN(c4ncccn4)CC3)cnc2[nH]1 [Compound 141] | 0.1 to 1 | 0.1 to 1 |
| CC(O)c1cc2c(N[C@H]3CC[C@H](O)CC3)c(-c3ccc(CN4CCOCC4)cn3)cnc2[nH]1 (some centres unmarked) [Compound 143] | < 0.1 | 1 to 10 |
| CCc1cc2c(N[C@H]3CC[C@H](O)CC3)c(-c3ccc(CN4CCOCC4)cn3)cnc2[nH]1 [Compound 144] | < 0.1 | 0.1 to 1 |
| COC(C)c1cc2c(N[C@H]3CC[C@H](N)CC3)c(C(=O)Nc3ccc(F)cc3)cnc2[nH]1 (some centres unmarked) [Compound 145] | 1 to 10 | > 10 |
| CCC(OC)c1cc2c(N[C@H]3CC[C@H](N)CC3)c(C(=O)Nc3ccc(F)cc3)cnc2[nH]1 (some centres unmarked) [Compound 146] | 1 to 10 | > 10 |
| COCC(C)c1cc2c(N[C@H]3CC[C@H](N)CC3)c(C(=O)Nc3ccc(F)cc3)cnc2[nH]1 (some centres unmarked) [Compound 155] | 1 to 10 | > 10 |
| CCC(C)c1cc2c(N[C@H]3CC[C@H](O)CC3)c(C(=O)NC3CCN(c4ncccn4)CC3)cnc2[nH]1 (some centres unmarked) [Compound 157] | > 10 | > 10 |
| CCC(C)c1cc2c(N[C@H]3CC[C@H](O)CC3)c(C(=O)NC3CCN(C4=NCCCN4)CC3)cnc2[nH]1 (some centres unmarked) [Compound 158] | 0.1 to 1 | 1 to 10 |
| CCC(C)c1cc2c(N[C@H]3CC[C@H](O)CC3)c(-c3ccc(S(=O)(=O)N4CCOCC4)cn3)cnc2[nH]1 (some centres unmarked) [Compound 159] | > 10 | > 10 |

Results, then the molecule that gave them:

| Ki (FLT3) [µM] | Ki (AXL) [µM] | Compound |
| --- | --- | --- |
| < 0.1 | 1 to 10 | CCCc1cc2c(N[C@H]3CC[C@H](N)CC3)c(-c3cc(N)ccn3)cnc2[nH]1 [Compound 131] |
| 0.1 to 1 | 1 to 10 | CCC(C)c1cc2c(N[C@H]3CC[C@H](N)CC3)c(C(=O)Nc3ccc(F)cc3)cnc2[nH]1 (some centres unmarked) [Compound 134] |
| 1 to 10 | 1 to 10 | CCCC(O)c1cc2c(N[C@H]3CC[C@H](N)CC3)c(Br)cnc2[nH]1 (some centres unmarked) [Compound 137] |
| < 0.1 | 0.1 to 1 | CCCc1cc2c(N[C@H]3CC[C@H](N)CC3)c(C(=O)NC)cnc2[nH]1 [Compound 139] |
| < 0.1 | 1 to 10 | CCCc1cc2c(N[C@H]3CC[C@H](N)CC3)c(C(=O)OC)cnc2[nH]1 [Compound 140] |
| 0.1 to 1 | 0.1 to 1 | CCCc1cc2c(N[C@H]3CC[C@H](N)CC3)c(Br)cnc2[nH]1 [Compound 142] |
| 1 to 10 | 1 to 10 | CCC(CC)c1cc2c(N[C@H]3CC[C@H](N)CC3)c(C(=O)Nc3ccc(F)cc3)cnc2[nH]1 [Compound 147] |
| 0.1 to 1 | > 10 | CC(O)c1cc2c(N[C@H]3CC[C@H](N)CC3)c(C(=O)Nc3ccc(F)cc3)cnc2[nH]1 (some centres unmarked) [Compound 148] |
| 1 to 10 | 1 to 10 | CCC[C@H](C)c1cc2c(N[C@H]3CC[C@H](N)CC3)c(C(=O)Nc3ccc(F)cc3)cnc2[nH]1 [Compound 149] |
| 1 to 10 | 1 to 10 | CCC[C@@H](C)c1cc2c(N[C@H]3CC[C@H](N)CC3)c(C(=O)Nc3ccc(F)cc3)cnc2[nH]1 [Compound 150] |
| > 10 | > 10 | CCOC(C)c1cc2c(N[C@H]3CC[C@H](N)CC3)c(C(=O)Nc3ccc(F)cc3)cnc2[nH]1 (some centres unmarked) [Compound 152] |
| > 10 | > 10 | CCCC(OC)c1cc2c(N[C@H]3CC[C@H](N)CC3)c(C(=O)Nc3ccc(F)cc3)cnc2[nH]1 (some centres unmarked) [Compound 153] |
| > 10 | > 10 | CCCC(O)c1cc2c(N[C@H]3CC[C@H](N)CC3)c(C(=O)Nc3ccc(F)cc3)cnc2[nH]1 (some centres unmarked) [Compound 154] |
| 0.1 to 1 | 1 to 10 | CC[C@H](C)c1cc2c(N[C@H]3CC[C@H](N)CC3)c(C(=O)Nc3ccc(F)cc3)cnc2[nH]1 [Compound 156] |
